According to patent US20250326799A1, “AGENTS INDUCING VASCULARISATION” (Coegin Pharma AB, priority 2022, published 2025):

What was measured:
[1] = tested on: human coronary smooth muscle cells (HCASMCs); experiment: In vitro scratch wound closure, HCASMCs; format: cell-based; conditions: for wound closure (scratch wound assay): HCASMCs
Protocol: (§1) The effect of FOL-026 peptide treatment on smooth muscle cell proliferation (FIG. 25a) and apoptosis (FIG. 25c) induced with low-oxygen condition was evaluated with the uptake of BrdU (n=10 per group) and active caspase-3/-7 (n=6-8 per group) separately. H2O2 measurement (FIG. 25b) of smooth muscle cells pre-incubated with FOL-26 peptides after 50 ug/ml oxidized Low-density Lipoprotein (oxLDL) stimulation for 2 hours (n=6-7 per group). Representative images of scratch wound assay in vitro are shown (FIG. 26a) and the ability of wound healing (FIG. 26b) in human coronary smooth muscle cells (HCASMCs) treated with FOL-026 peptides was measured by image J software (n=10 per group). Scale bar=150 um. Data are presented as means±SEM and acquired from 3 to 4 independent replicate tests. *P<0.05, **P<0.01, ***P<0.001, ****P<0.0001 by one-way ANOVA and Dunnett's post-hoc test.
qRT-PCR analysis of NRP-1 mRNA expression in HCASMCs with small interfering RNA transfection for 48 hours (n=4) (FIG. 27a). The assessment of BrdU incorporation (FIG. 27b, n=10-11) and caspase-3/-7 activation (FIG. 27c, n=3-10) in siRNA-NC/siNRP-1-transfected […] treated with indicated concentration of FOL-026 peptide. The wound closure rate (FIG. 28b) of HCASMCs in siRNA-NC and siNRP-1 group stimulated with increasing concentration of FOL-026 peptide was quantified by image J software (n=9-12 per group). Scale bar=150 um. Data are presented as means±SEM and acquired from 3 to 4 independent replicate tests. *P<0.05, **P<0.01, ***P<0.001, ****P<0.0001 by Student's t test for A, two-way ANOVA followed with Sidak's and Dunnett's multiple comparisons test.
The effect of FOL-005 peptide on smooth muscle cell proliferation (FIG. 30a) was determined with BrdU incorporation in peptide-treated human coronary smooth muscle cells (HCASMCs). Scratch wound assay (FIG. 30b) of HCASMCs incubated with FOL-005 peptides for 5 hours was measured by image J software (n=10-12 per group) and representative pictures of smooth muscle cell migration into an in vitro scratch injury were shown (FIG. 30c). Scale bar=150 um.

[2] = tested on: human umbilical vascular endothelial cells (HUVECs); experiment: In vitro scratch wound closure, HUVECs; format: cell-based; conditions: for wound closure rate (scratch injury): HUVECs, increasing concentration of peptide
Protocol: (§2) The impact of FOL-026 peptide on human umbilical vascular endothelial cells (HUVECs) proliferation (FIG. 18a) and apoptosis (FIG. 18c) induced with low-oxygen condition was determined by BrdU uptake (n=8-9 per group) and active caspase-3/-7 (n=7-10 per group) separately. The ROS level (FIG. 18b) activated by 50 ug/ml oxidized Low-density Lipoprotein (oxLDL) for 2 hours in cells pre-incubated with FOL-026 peptides was assessed using H2O2 measurement (n=4-8 per group). Representative pictures of endothelial migration into an in vitro scratch injury were shown (FIG. 19a) and the wound closure rate (FIG. 19b) in HUVECs stimulated with increasing concentration of FOL-026 peptide was quantified by image J software (n=8-9 per group). Scale bar=150 um. Data are presented as means±SEM and acquired from 3 to 4 independent replicate tests. *P<0.05, **P<0.01, ****P<0.0001 by one-way ANOVA and Dunnett's post-hoc test.
The efficiency of small interfering RNA transfection for 48 hours in HUVECs was confirmed by qRT-PCR (n=4) (FIG. 22a). Effect of FOL-026 peptide stimulation on cell proliferation (FIG. 22b) and cell apoptosis at 0.1% oxygen (FIG. 22c) in HUVECs transfected with siRNA-NC or siNRP-1 was evaluated by BrdU incorporation (n=4-7 per group) and active caspase-3/-7 ((n=4-7 per group). Representative pictures of endothelial cells at 0 and 5 hours after scratch wounding are shown in 23a. The wound closure rate (FIG. 23b) of siRNA-NC/siNRP-1-transfected HUVECs stimulated with increasing concentration of FOL-026 peptide was quantified by image J software (n=9-12 per group). Scale bar=150 um. Data are presented as means±SEM and acquired from 3 to 4 independent replicate tests. *P<0.05, **P<0.01, ***P<0.001, ****P<0.0001 by Student's t test for A, two-way ANOVA followed with Sidak's and Dunnett's multiple comparisons test for B, C and E.
The effect of FOL-005 peptide on smooth muscle cell proliferation (FIG. 30a) was determined with BrdU incorporation in peptide-treated human coronary smooth muscle cells (HCASMCs). […]

[3] = Vessel density, CD31+ positive area; conditions: in vivo
Protocol: Quantified measurement of total length (FIG. 20b), total master segments length (FIG. 20c), total branching length (FIG. 20d) and total segments length (FIG. 20e) were performed to evaluate angiogenesis in vitro (n=7 per group for FIG. 29 b-e). The quantification of vessel density was assessed with CD31+ positive area (FIG. 21a, n=13 per group). Western blot analysis of phosphorylated AKT (pAKT-T308), AKT, phosphorylated ERK1/2 (p-ERK1/2) and ERK1/2 in endothelial cells stimulated with FOL-26 peptides for 48 hours (FIG. 21b). Quantification of phosphorylation intensities normalized to respective total expressions (FIG. 21c-d, n=3 per group).

[4] = tested on: human coronary smooth muscle cells (HCASMCs); experiment: H2O2 measurement after oxLDL, smooth muscle cells; format: cell-based; conditions: smooth muscle cells pre-incubated with peptide; 50 ug/ml oxLDL for 2 hours
Protocol: as §1

[5] = tested on: human umbilical vascular endothelial cells (HUVECs); experiment: ROS level (H2O2 measurement) after oxLDL, HUVECs; format: cell-based; conditions: HUVECs pre-incubated with peptide; 50 ug/ml oxLDL for 2 hours
Protocol: as §2

Sequence	wound closure (scratch wound assay) [1]	wound closure rate (scratch injury) [2]	vessel density (CD31+ positive area) [3]	ROS formation (H2O2 measurement) [4]	ROS levels induced by oxLDL (H2O2 measurement) [5]	wound closure after NRP-1 knock-down (Example 11) ([1]; siRNA-NC/siNRP-1-transfected cells, printed as HUVECs, increasing concentration, 5 hours)	wound closure rate after NRP-1 knock-down ([2]; siRNA-NC/siNRP-1-transfected HUVECs, increasing concentration, 5 hours)
VDTYDGDISVVYGLR [FOL-005]	accelerate HCASMC wound closure	accelerate HUVEC wound closure	–	–	–	–	–
VDTYDGGISVVYGLR [FOL-026]	accelerates wound closure	accelerates HUVEC wound closure	increased vessel density	reduces ROS formation	reduce the amount of ROS levels	positive effect on wound closure	positive effect on wound closure
